Values of other authors as cited in patent publication US10471178B2, “Implantable medical devices with increased immune tolerance, and methods for making and implanting” (AMPIO PHARMACEUTICALS, INC., priority 2011, dated 2019).

Test system: memory but not naive human T lymphocytes
Conditions: memory vs naive human T lymphocytes

Compound: C[C@@H]1NC(=O)[C@H](CC(=O)O)NC1=O [DA-DKP, Aspartate, Alanine-Diketopiperazine]
- immunomodulatory effect on human T lymphocytes: immunomodulatory for memory but not naive human T lymphocytes
